The source of these data is article PMC4890880 (ACS infectious diseases, 2016).

The subject of assay [1] is HepG2-A16-CD81EGFP cells. In words: cells. Conditions: Homo sapiens; for IC50: HepG2, read-out: Tox IC50; for inhibition at 50 µM: HepG2, read-out: Tox max inhibition (%) @ 50 uM; for inhibition at 10 µM: HepG2, read-out: Tox max inhibition (%) @ 10 uM.
Assay [2] concerns the target QuantiLum Recombinant Luciferase (Photinus pyralis, UniProt P08659). Briefly: Bioluminescence quantification of compound luciferase inhibition. Conditions: for Emax: read-out: LucInhib max inhibition.
Assay [3] relates to Plasmodium berghei (Pb-Luc) exoerythrocytic-stage parasites. Briefly: microbe, parasite or virus in culture. The note with it: for inhibition at 10 µM: read-out: PbLuc max inhibition (%) @ 10 uM.
Where [4] appears, read: HepG2, read-out: HepG2 Tox% @ 50 uM rep1.
Setting [5] is: HepG2, read-out: HepG2 Tox% @ 50 uM rep2.
[6] abbreviates: read-out: Inhibition% @ 50 uM rep1.
Setting [7] is: read-out: Inhibition% @ 50 uM rep2.
[8] abbreviates: read-out: PbLuc IC50, dose response, 1/3 dilutions, max conc. 10 or 50 uM, unit inferred.
The mark [9] stands for this setting: read-out: PbLuc max inhibition (%) @ 50 uM.
Setting [10] is: read-out: PbLuc IC50, dose response, unit inferred.

Where two headings read alike, the source gives them in different places.

Sequence of QuantiLum Recombinant Luciferase (P08659 whole entry): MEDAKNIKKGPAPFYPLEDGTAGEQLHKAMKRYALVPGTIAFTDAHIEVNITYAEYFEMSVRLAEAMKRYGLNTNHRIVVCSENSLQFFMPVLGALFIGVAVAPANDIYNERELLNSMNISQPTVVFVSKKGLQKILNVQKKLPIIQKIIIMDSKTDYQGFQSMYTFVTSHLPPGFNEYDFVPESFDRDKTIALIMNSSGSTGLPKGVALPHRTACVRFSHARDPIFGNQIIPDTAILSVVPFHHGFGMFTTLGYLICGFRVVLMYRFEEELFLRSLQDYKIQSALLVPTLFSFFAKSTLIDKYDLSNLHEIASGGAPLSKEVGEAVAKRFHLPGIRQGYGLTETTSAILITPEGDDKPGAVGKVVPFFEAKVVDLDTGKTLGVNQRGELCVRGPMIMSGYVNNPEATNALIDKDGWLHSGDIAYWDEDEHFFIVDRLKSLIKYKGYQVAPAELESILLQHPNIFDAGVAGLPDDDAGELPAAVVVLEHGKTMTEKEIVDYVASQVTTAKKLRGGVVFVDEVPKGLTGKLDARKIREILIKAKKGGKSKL

By inhibition is commonly meant the relative decrease from the control value, in per cent. For the molecule `FC(F)(F)c1ccc(Nc2nnnc3ccccc23)cc1` [MMV665935], the cytotoxicity at 50 µM in assay [1] (setting [4]) is 19%; in assay [1] (setting [5]), -5%. The IC50 in assay [1] is > 50 µM; in assay [2] it was > 50 µM; in assay [3] (setting [8]) it was 0.738 µM. Also, the inhibition at 50 µM worked out at 7% in assay [1], 102% in assay [3] (setting [6]), 101% in assay [3] (setting [7]) and 105% in assay [3] (setting [9]). In addition, the Emax in assay [2] is 25%.

`CCCCOc1ccc(C(=O)Nc2cc(C)on2)cc1` [MMV007906]: the cytotoxicity at 50 µM in assay [1] (setting [4]) is -15%; in assay [1] (setting [5]) it was -10%. Further, the values for the IC50 in assay [1], in assay [2] and in assay [3] (setting [8]) were > 10 µM, > 20 µM and 0.907 µM, respectively. Further, the inhibition at 10 µM was determined as 7.53% in assay [1] and 97% in assay [3]. Moreover, the Emax in assay [2] came out at 34%. Moreover, the inhibition at 50 µM in assay [3] (setting [6]) and in assay [3] (setting [7]) was 98% in each case.

As for `Cc1ccc(Cn2c(N3CCC(C(=O)NCc4cccs4)CC3)nc3ccccc32)cc1` [MMV007564], the cytotoxicity at 50 µM in assay [1] (setting [4]) was determined as 97%; in assay [1] (setting [5]) it was 99%. The figures for the IC50 in assay [1], in assay [2] and in assay [3] (setting [8]) were > 50 µM, > 50 µM and 2.09 µM, respectively. For the same molecule, the inhibition at 50 µM is 69% in assay [1], 104% in assay [3] (setting [6]), 105% in assay [3] (setting [7]) and 106% in assay [3] (setting [9]). The Emax in assay [2] came to 27%.

Turning to `CCOC(=O)c1cnc2c(CC)cccc2c1O` [MMV498479], the cytotoxicity at 50 µM in assay [1] (setting [4]) is -10%. Besides, the figures for the IC50 in assay [1], in assay [2] and in assay [3] (setting [8]) were > 50 µM, > 50 µM and 1.67 µM, respectively. Besides, the inhibition at 50 µM in assay [1] came to 1%; in assay [3] (setting [6]) it was 103%; in assay [3] (setting [7]), 103%; in assay [3] (setting [9]), 106%. Also, in assay [2], the Emax worked out at 19%.

In the case of `N=c1c2ccccc2nnn1-c1cccc(C(F)(F)F)c1` [MMV665923], in assay [1] (setting [4]), the cytotoxicity at 50 µM is -7.5%. For the same molecule, the IC50 in assay [1] is > 50 µM; in assay [2] it was > 50 µM; in assay [3] (setting [8]) it was 0.789 µM. Further, the inhibition at 50 µM stood at 26% in assay [1], 99% in assay [3] (setting [6]), 99% in assay [3] (setting [7]) and 104% in assay [3] (setting [9]). Also, in assay [2], the Emax was determined as 26%.

On to `COc1cccc(NC(=O)[C@H](C(C)C)n2c(=O)[nH]c3ccccc3c2=O)c1` [MMV665878], for which the cytotoxicity at 50 µM in assay [1] (setting [4]) was found to be 12%; in assay [1] (setting [5]), 4.53%. Also, the figures for the IC50 in assay [1], in assay [2] and in assay [3] (setting [8]) were > 50 µM, > 50 µM and 13.2 µM, respectively. Moreover, the inhibition at 50 µM worked out at 13% in assay [1], 102% in assay [3] (setting [6]), 102% in assay [3] (setting [7]) and 101% in assay [3] (setting [9]). In assay [2], the Emax is 28%.

With `N#Cc1nc(Cc2cccc3ccccc23)oc1N1CCN(C(c2ccccc2)c2ccccc2)CC1` [MMV396726], the cytotoxicity at 50 µM in assay [1] (setting [4]) is -11%. In addition, the IC50 was > 50 µM in assay [1], > 50 µM in assay [2] and 2.68 µM in assay [3] (setting [8]). For the same molecule, the inhibition at 50 µM in assay [1] is -1%; in assay [3] (setting [6]), 97%; in assay [3] (setting [7]), 92%; in assay [3] (setting [9]), 100%. In addition, in assay [2], the Emax is 23%.

`CCCCCC(=O)N1c2ccccc2N=C2CC(c3ccc(OC)c(OC)c3)CC(O)=C2C1c1ccc(C(F)(F)F)cc1` (centres unmarked) [MMV085583]: the cytotoxicity at 50 µM in assay [1] (setting [4]) is 14%; in assay [1] (setting [5]), 28%. In addition, the IC50 in assay [1] is > 50 µM; in assay [2], > 50 µM; in assay [3] (setting [8]) it was 7.1 µM. For the same molecule, the inhibition at 50 µM in assay [1] came to 4.23%; in assay [3] (setting [6]) it was 97%; in assay [3] (setting [7]), 90%; in assay [3] (setting [9]) it was 89%. Besides, the Emax in assay [2] was determined as 34%.

In the case of `CCOc1ccc(C=Cc2nc(=O)c3ccccc3o2)cc1` [MMV665940], the cytotoxicity at 50 µM in assay [1] (setting [4]) amounted to 19%; in assay [1] (setting [5]), 1%. Further, the IC50 was > 50 µM in assay [1], 16.5 µM in assay [2] and 0.646 µM in assay [3] (setting [8]). The inhibition at 50 µM in assay [1] is 18%; in assay [3] (setting [6]), 102%; in assay [3] (setting [7]) it was 101%; in assay [3] (setting [9]), 104%. In addition, the Emax in assay [2] turned out to be 85%.

As to `C=CCc1c(C)nc2ccccc2c1O` [MMV006913], the cytotoxicity at 50 µM in assay [1] (setting [4]) was -8%; in assay [1] (setting [5]), -5%. The IC50 in assay [1] was > 10 µM; in assay [2], > 20 µM; in assay [3] (setting [8]), 0.292 µM. Further, the inhibition at 10 µM in assay [1] was 15%; in assay [3] it was 108%. The Emax in assay [2] is 38%. Also, the results for the inhibition at 50 µM in assay [3] (setting [6]) and in assay [3] (setting [7]) were 100% and 97%, respectively.

On to `CCOc1ccc(Nc2ccnc3cc(Cl)ccc23)cc1` [MMV007285], for which, in assay [1] (setting [4]), the cytotoxicity at 50 µM was 16%. Further, the IC50 was > 50 µM in assay [1], > 50 µM in assay [2] and 1.65 µM in assay [3] (setting [8]). For the same molecule, the inhibition at 50 µM in assay [1] was found to be 14%; in assay [3] (setting [6]), 88%; in assay [3] (setting [7]) it was 91%; in assay [3] (setting [9]), 100%. Also, the Emax in assay [2] stood at 47%.

Consider `O=[N+]([O-])c1ccc(C=NNc2nc3ccccc3[nH]2)cc1` [MMV666607], for which the cytotoxicity at 50 µM in assay [1] (setting [4]) is 14%; in assay [1] (setting [5]), 20%. The IC50 is > 10 µM in assay [1], > 20 µM in assay [2] and > 10 µM in assay [3] (setting [10]). Besides, the inhibition at 10 µM is 5% in assay [1] and -2.2% in assay [3]. Besides, in assay [2], the Emax turned out to be 30%. Also, the figures for the inhibition at 50 µM in assay [3] (setting [6]) and in assay [3] (setting [7]) were -47% and -99%, respectively.

With `CCOC(=O)c1cn(CC)c2cc(N(C)CCc3ccc(OC)c(OC)c3)c(F)cc2c1=O` [MMV665977], the figures for the cytotoxicity at 50 µM in assay [1] (setting [4]) and in assay [1] (setting [5]) were 6% and 3%, respectively. Also, the IC50 in assay [1] is > 50 µM; in assay [2], > 50 µM; in assay [3] (setting [8]), 1.61 µM. Further, the inhibition at 50 µM was 3.53% in assay [1], 103% in assay [3] (setting [6]), 106% in assay [3] (setting [7]) and 106% in assay [3] (setting [9]). In addition, the Emax in assay [2] stood at 40%.

Turning to `O=C(NCc1ccco1)C1CCN(S(=O)(=O)c2ccc(Cl)cc2)CC1` [MMV006188], the results for the cytotoxicity at 50 µM in assay [1] (setting [4]) and in assay [1] (setting [5]) were 22% and 28%, respectively. Further, the IC50 was > 50 µM in assay [1], > 50 µM in assay [2] and 0.707 µM in assay [3] (setting [8]). For the same molecule, the inhibition at 50 µM worked out at 28% in assay [1], 102% in assay [3] (setting [6]), 102% in assay [3] (setting [7]) and 106% in assay [3] (setting [9]). Besides, the Emax in assay [2] is 22%.

Regarding `CCOc1cc(Cl)c(C(C)NC(=O)c2ccccc2)cc1OCC` (centres unmarked) [MMV665800], the cytotoxicity at 50 µM turned out to be 49% in assay [1] (setting [4]) and 21% in assay [1] (setting [5]). Also, the IC50 in assay [1], in assay [2] and in assay [3] (setting [10]) was > 50 µM in each case. In addition, the inhibition at 50 µM was found to be 22% in assay [1], 97% in assay [3] (setting [6]), 93% in assay [3] (setting [7]) and 89% in assay [3] (setting [9]). Further, the Emax in assay [2] was determined as 41%.

Turning to `Cc1sc(NC(=O)c2ccccc2)c(C(c2cccs2)N2CCN(c3ccccc3)CC2)c1C` (centres unmarked) [MMV396652], in assay [1] (setting [4]), the cytotoxicity at 50 µM came out at 14%. Also, the values for the IC50 in assay [1], in assay [2] and in assay [3] (setting [8]) were > 50 µM, > 50 µM and 4.07 µM, respectively. Besides, the inhibition at 50 µM in assay [1] is 28%; in assay [3] (setting [6]), 99%; in assay [3] (setting [7]), 99%; in assay [3] (setting [9]), 97%. For the same molecule, the Emax in assay [2] turned out to be 33%.

Take `Cc1ccc(N2C(=O)C3C(C2=O)C2(c4ccccc4)C(=O)C3(c3ccccc3)C(c3ccccc3)=C2c2ccccc2)cc1` (centres unmarked) [MMV666062]: the cytotoxicity at 50 µM worked out at 1.06% in assay [1] (setting [4]) and 8.55% in assay [1] (setting [5]). For the same molecule, the IC50 in assay [1] is > 50 µM; in assay [2] it was > 50 µM; in assay [3] (setting [8]), 6.54 µM. The inhibition at 50 µM in assay [1] was 9%; in assay [3] (setting [6]), 91%; in assay [3] (setting [7]), 100%; in assay [3] (setting [9]), 102%. In addition, in assay [2], the Emax worked out at 23%.

As for `CCN(CC)c1ccc(NC(=O)c2cccs2)cc1` [MMV009060], the cytotoxicity at 50 µM in assay [1] (setting [4]) turned out to be 7%; in assay [1] (setting [5]) it was 16%. The IC50 in assay [1] is > 50 µM; in assay [2], 33.1 µM; in assay [3] (setting [8]), 1.76 µM. Also, the inhibition at 50 µM in assay [1] came out at 6%; in assay [3] (setting [6]), 101%; in assay [3] (setting [7]), 102%; in assay [3] (setting [9]) it was 104%. In assay [2], the Emax stood at 80%.

On to `O=C(NC1CCCC1)c1ccc(N2CCC(NCc3cccc(C(F)(F)F)c3)CC2)cc1` [MMV666070], for which the values for the cytotoxicity at 50 µM in assay [1] (setting [4]) and in assay [1] (setting [5]) were -11% and 8.43%, respectively. For the same molecule, the IC50 in assay [1] is > 50 µM; in assay [2] it was > 50 µM; in assay [3] (setting [8]) it was 1.86 µM. In addition, the inhibition at 50 µM in assay [1] turned out to be 10%; in assay [3] (setting [6]), 98%; in assay [3] (setting [7]), 96%; in assay [3] (setting [9]) it was 98%. In addition, in assay [2], the Emax worked out at 18%.
